Assay results published in US20080221114A1, “2-(Cyclic Aminocarbonyl) Indoline Derivative and Medicinal Composition Containing the Same” (priority 2005, published 2008).

Key:
[1] = target: T1, mitochondrial benzodiazepine receptor (MBR) (Rattus norvegicus, UniProt P16257); assay: Binding assay of mitochondrial benzodiazepine receptor (MBR), [3H]4'-chlorodiazepam (Ro5-4864), rat kidney membrane-preparation; conditions: rat kidney membranes, [3H]4'-chlorodiazepam 0.5 nM, 0° C. for 150 minutes
T1 construct: from tissue; host or cells: kidney of male Wistar rats (crude membrane preparation)
Procedure: The binding assay of central-type benzodiazepine receptor (CBR) and the preparation of receptor membrane-preparation were carried out according to the partially modified method of Braestrup, C. et al. [see; Br. J. Psychiatry, 133, 249-260 (1978)] with a minor modification; the binding assay of mitochondrial benzodiazepine receptor (MBR) and the preparation of receptor membrane-preparation were carried out according to the method of Schoemaker, H [see; J. Pharmacol. Exp. Ther., 225, 61-69 (1983)] with a minor modification.
CBR and MBR membrane-preparations were prepared from forebrain (CBR) and kidney (MBR) of male Wistar strain rats according to the following procedure, respectively.
To the forebrain of rat, 20 volumes of ice-cold 0.32 M sucrose solution to wet-weight of the tissue (1:20, wet-weight/vol) was added and homogenized, and then the homogenate was centrifuged at 900×g for 10 minutes. The supernatant was centrifuged at 11,500×g for 20 minutes, a buffer I for the binding assay (50 mM Tris-hydrochloric acid buffer, pH 7.5) was added to the resultant precipitate, and the mixture was homogenized, and then it was centrifuged at 30,000×g for 10 minutes. The resulting precipitate was washed 3 times according to the same operation, suspended in the buffer I (1 g of wet-weight of tissue/10 ml) and used as a CBR membrane-preparation for the binding assay. The CBR membrane-preparation was stored at −80° C. until use, and on the day of the assay, it was thawed and suspended in the buffer for use. On the other hand, kidney of rat was homogenized in 20 volumes of ice-cold buffer II for the binding assay to wet-weight of the tissue (1:20, wet-weight/vol) (50 mM sodium phosphate-potassium phosphate buffer solution containing 100 mM sodium chloride, pH 7.4), and then filtrated through 4 layers of gauze, and the filtrate was centrifuged at 40,000×g for 20 minutes. The resulting precipitate was suspended in the buffer II (1 g of wet-weight of tissue/50 ml) and used as a MBR membrane-preparation for the binding assay.
As a labeled ligand and a non-labeled ligand, [^3H]flunitrazepam (final concentration: 1 nM) and diazepam (final concentration: 20 μM) were used respectively, for the CBR binding assay, and [^3H]4′-chlorodiazepam (Ro5-4864, chemical name: 7-chloro-1,3-dihydro-1-methyl-5-(4-chloro-phenyl)-2H-1,4-[…]) (final concentration: 0.5 nM) and diazepam (final concentration: 50 μM) were used respectively, for the MBR binding assay. The binding assay of CBR was carried out by incubating at 0° C. for 30 minutes, while that of MBR was at 0° C. for 150 minutes.
The receptor binding assay was carried out in the following procedure. The test compound which the concentration was known, a tritium labeled ligand, a receptor membrane-preparation and the buffer I or II for the binding assay were added to a 96-well microplate in the total volume was 0.2 ml, and when the receptor membrane-preparation was added, the reaction started. After the incubation, the labeled ligand binding to the receptor was filtrated through a filter plate (UNI FILTER-96GF/B, PerkinElmer, the U.S.) using a cell harvester (PerkinElmer, the U.S.) to stop the reaction. The filter was immediately washed 6 times with 0.3 ml of the ice-cold buffer [50 mM Tris-hydrochloric acid buffer (pH 7.7)]. After 30 μl of liquid scintillation cocktail (MICROSCINTI 20, PerkinElmer, the U.S.) was added to each well on the dried filter plate, the radioactivity was measured with a TopCount. The specific binding amount was obtained by subtracting the non-specific binding amount which was simultaneously measured in the presence of non-labeled ligand from the total binding amount. The concentration that the test compound could decrease the specific binding amount of the labeled ligand to 50% of the amount (IC50 value) was analyzed using nonlinear least-squares method.

[2] = test system: mice (male ddY); assay: Social interaction test (antianxiety effect); assay type: in vivo, mouse; conditions: oral, 1 hour before test; statistically significant increase in social interaction time vs vehicle (Dunnett's test, 5%)
From the text: The test is a behavioral pharmacological test wherein social interaction time which would arise between 2 animals (mice, rats or other) in a test apparatus is considered to be as an anxious indicator [see; File, S. E., J. Neurosci. Methods, 2, 219-238 (1980)]. It is known that a bright and unfamiliar test apparatus which is an aversive condition for mice or rats may suppress a social interaction of the animals and such suppressed social interaction may be restored by an antianxiety drug such as benzodiazepines.
A glass beaker which was inverted onto a frosted glass plate was brightly illuminated with a light source (ca. 1200 lux in the apparatus), and it was used as a test apparatus. Two mice (male ddY, 22-32 g) that were housed in separate home cages were orally treated with a test compound and returned to their home cages. One hour after the oral administration, the two mice were then placed together in the test apparatus, and the amount of time spent in social interaction by the two mice during a 15-minute period was recorded. The social interaction was defined as grooming and sniffing of the partner, genital investigation of the partner, climbing over or crawling under the partner. Four to five pairs (8 to 10 mice) were used per a group.
An antianxiety effect of the test compounds was presented as a minimum effective dose which indicated statistically significant increase in social interaction time as compared with a vehicle control group (Dunnett's test, Significance level: 5%).

Molecule | IC50 [1] | melting point | Minimum effective dose [2]
2-[((cis-3,5-dimethylpiperidin-1-yl)-carbonyl]-1-(2-pyrimidinyl)indoline [Example 1] | 1.98 nM |  | 0.001 mg/kg
C[C@H]1CCCN(C(=O)[C@@H]2Cc3ccccc3N2c2ncccn2)C1 [Example 23, (S)-2-[(S)-3-methylpiperidin-1-yl]carbonyl-1-(2-pyrimidinyl)indoline] | 0.949 nM | 212 to 214 °C | 0.01 mg/kg
C[C@@H]1C[C@H](C)CN(C(=O)[C@@H]2Cc3ccccc3N2c2ncccn2)C1 [Example 24, (S)-2-(cis-3,5-dimethylpiperidin-1-yl)carbonyl-1-(2-pyrimidinyl)indoline] | 0.851 nM | 163 to 164 °C | 0.001 mg/kg
C[C@@H]1C[C@H](C)CN(C(=O)[C@@H]2Cc3ccccc3N2c2ccc(=O)n(C)n2)C1 [Example 41, (S)-1-(1-methyl-6-oxo-1,6-dihydropyridazin-3-yl)-2-[(cis-3,5-dimethylpiperidin-1-yl)carbonyl]indoline] | 2.41 nM | 200 to 204 °C | 0.01 mg/kg
C[C@@H]1C[C@H](C)CN(C(=O)[C@@H]2Cc3ccccc3N2c2cccnn2)C1 [Example 57, (S)-2-[(cis-3,5-dimethylpiperidin-1-yl)-carbonyl]-1-(3-pyridazinyl)indoline] | 2.03 nM |  | 0.1 mg/kg
C[C@@H]1C[C@H](C)CN(C(=O)[C@@H]2Cc3ccccc3N2c2cnccn2)C1 [Example 61, (S)-2-(cis-3,5-dimethylpiperidin-1-yl)carbonyl-1-(2-pyrazinyl)indoline] | 1.42 nM | 162 to 164 °C | 
C[C@@H]1CCCN(C(=O)[C@@H]2Cc3ccccc3N2c2cccnn2)C1 [Example 62] | 12.2 nM | 169 to 172 °C | 
C[C@H]1CCCN(C(=O)C2Cc3cc(F)ccc3N2c2ccc(Cl)nn2)C1 (stereo partly drawn) [Example 67] | 1.56 nM | 164 to 168 °C | 
COc1cccc2c1CC(C(=O)N1CCC[C@H](C)C1)N2c1ccc(Cl)nn1 (stereo partly drawn) [Example 68] | 1.67 nM | 223 to 226 °C | 
COc1ccc2c(c1)CC(C(=O)N1CCC[C@H](C)C1)N2c1ccc(Cl)nn1 (stereo partly drawn) [Example 69] | 4.51 nM | 136 to 139 °C | 
COc1ccc2c(c1)N(c1ccc(Cl)nn1)C(C(=O)N1CCC[C@H](C)C1)C2 (stereo partly drawn) [Example 70] | 2.45 nM | 184 to 186 °C | 
C[C@H]1CCCN(C(=O)[C@@H]2Cc3ccccc3N2c2ccccn2)C1 [Example 72] | 0.659 nM | 186 to 189 °C | 
C[C@H]1CCCN(C(=O)[C@@H]2Cc3ccccc3N2c2cnn(C)c(=O)c2)C1 [Example 83] | 9.33 nM | 150 to 152 °C | 
C[C@H]1CCCN(C(=O)[C@@H]2Cc3cc(Br)ccc3N2c2cccnn2)C1 [Example 90] | 6.54 nM | 161 to 163 °C | 
C[C@H]1CCCN(C(=O)[C@@H]2Cc3cc(Cl)ccc3N2c2cccnn2)C1 [Example 91] | 2.31 nM | 175 to 177 °C | 
C[C@H]1CCCN(C(=O)[C@@H]2Cc3cc(Br)ccc3N2c2ccc(=O)n(C)n2)C1 [Example 93] | 5.81 nM | 241 to 242 °C | 
C[C@H]1CCCN(C(=O)[C@@H]2Cc3cc(Cl)ccc3N2c2ccc(=O)n(C)n2)C1 [Example 94] | 16.7 nM | 243 to 244 °C | 
C=Cc1ccc2c(c1)C[C@@H](C(=O)N1CCC[C@H](C)C1)N2c1cccnn1 [Example 98] | 44.3 nM | 103 to 106 °C | 
Cn1nc(N2c3ccccc3C[C@H]2C(=O)N2CCCCC2)ccc1=O [Example 107, (S)-1-(1-methyl-6-oxo-1,6-dihydropyridazin-3-yl)-2-(1-piperidinylcarbonyl)indoline] | 28.5 nM | 225 to 227 °C | 

Further lines, with some results ahead:

IC50 [1] | melting point | Molecule | Minimum effective dose [2]
3.35 nM | 134 to 137 °C | COc1ccc(N2c3ccccc3C[C@H]2C(=O)N2CCC[C@H](C)C2)nn1 [Example 73, (S)-1-(6-Methoxypyridazin-3-yl)-2-[[(S)-3-methylpiperidin-1-yl]carbonyl]indoline] | 
2.77 nM | 215 to 216 °C | CC(C)Cn1nc(N2c3ccccc3C[C@H]2C(=O)N2CCC[C@H](C)C2)ccc1=O [Example 75] | 
3.15 nM | 215 to 217 °C | C[C@H]1CCCN(C(=O)[C@@H]2Cc3ccccc3N2c2ccc(=O)n(CC3CCCCC3)n2)C1 [Example 77] | 
2.53 nM | 190 to 193 °C | C[C@H]1CCCN(C(=O)[C@@H]2Cc3ccccc3N2c2ccc3nccn3n2)C1 [Example 78] | 
1.76 nM | 268 to 269 °C | C[C@H]1CCCN(C(=O)[C@@H]2Cc3ccccc3N2c2ccc3nnc(Cl)n3n2)C1 [Example 79, (S)-1-(3-chloro-1,2,4-triazolo[4,3-b]pyridazin-6-yl)-2-[[(S)-3-methylpiperidin-1-yl]carbonyl]indoline] | 
26.8 nM | 191 to 193 °C | C[C@@H]1CCCN(C(=O)[C@@H]2Cc3ccccc3N2c2ccc(=O)n(C)n2)C1 [Example 122] | 
1.45 nM | 220 to 222 °C | C[C@H]1CCCN(C(=O)[C@@H]2Cc3ccccc3N2c2ccc(=O)n(Cc3ccccc3)n2)C1 [Example 123, (S)-1-(1-benzyl-6-oxo-1,6-dihydropyridazin-3-yl)-2-[[(S)-3-methylpiperidin-1-yl]carbonyl]indoline] | 
1.97 nM | 173 to 175 °C | C[C@H]1CCCN(C(=O)[C@@H]2Cc3ccccc3N2c2ccc(=O)n(CC(F)F)n2)C1 [Example 127] | 
3.91 nM | 229 to 230 °C | C[C@H]1CCCN(C(=O)[C@@H]2Cc3ccccc3N2c2ccc(=O)n(CCF)n2)C1 [Example 128, (S)-1-[1-(2-fluoroethyl)-6-oxo-1,6-dihydropyridazin-3-yl]-2-[[(S)-3-methylpiperidin-1-yl]carbonyl]indoline] | 
5.56 nM |  | CCn1nc(N2c3ccccc3C[C@H]2C(=O)N2CCC[C@H](C)C2)ccc1=O [Example 129, (S)-1-(1-ethyl-6-oxo-1,6-dihydropyridazin-3-yl)-2-[[(S)-3-methylpiperidin-1-yl]carbonyl]indoline] | 1 mg/kg
4.04 nM | 183 to 185 °C | CCCn1nc(N2c3ccccc3C[C@H]2C(=O)N2CCC[C@H](C)C2)ccc1=O [Example 130] | 
